The source made the active and inactive calls. The calls are words filed in the database; no cut-off is given here.
Tested on: L5178Y
Assay: Cytotoxicity against parental mouse L5178Y cells assessed as inhibition of cell growth incubated for 24 hrs by MTT assay
Type: functional, cell-based
Settings: not given

Structure (SMILES)	IC50
COc1cccc2c1C(=O)c1c(O)c3c(c(O)c1C2=O)C[C@@](O)(C(=O)CO)C[C@@H]3O[C@H]1C[C@H](N)[C@H](O)[C@H](C)O1 [DOXORUBICIN]	0.7 µM
CN1CCN(c2nc(N)nc(CCCSc3ccccc3)n2)CC1.Cl	30.1 µM
CN1CCN(c2nc(N)nc(CSCc3ccccc3)n2)CC1	> 100 µM
CCC(Sc1cccc2ccccc12)c1nc(N)nc(N2CCN(C)CC2)n1 (configuration not stated)	22.6 µM
CCC([Se]Cc1ccccc1)c1nc(N)nc(N2CCN(C)CC2)n1 (configuration not stated)	8.66 µM
CN1CCN(c2nc(N)nc(CSc3ccc4ccccc4c3)n2)CC1.Cl	27.1 µM
CN1CCN(c2nc(N)nc(C(C)(C)Sc3ccc4ccccc4c3)n2)CC1	24.8 µM
CC(SCc1ccccc1)c1nc(N)nc(N2CCN(C)CC2)n1 (configuration not stated)	91.8 µM
CCCCC(SCc1ccccc1)c1nc(N)nc(N2CCN(C)CC2)n1 (configuration not stated)	19.7 µM
CCC(Sc1ccccc1)c1nc(N)nc(N2CCN(C)CC2)n1.Cl (configuration not stated)	54.4 µM
CN1CCN(c2nc(N)nc(CCC[Se]c3ccccc3)n2)CC1.Cl	33.4 µM
CN1CCN(c2nc(N)nc(CSc3ccccc3)n2)CC1	> 100 µM
CCCC(SCc1ccccc1)c1nc(N)nc(N2CCN(C)CC2)n1.Cl (configuration not stated)	36 µM
CCCC(Sc1ccccc1)c1nc(N)nc(N2CCN(C)CC2)n1.Cl (configuration not stated)	15 µM
CN1CCN(c2nc(N)nc(CCSCc3ccccc3)n2)CC1.Cl	82.4 µM
CC(Sc1cccc2ccccc12)c1nc(N)nc(N2CCN(C)CC2)n1 (configuration not stated)	15.5 µM

Tested on: L5178Y
Assay: Cytotoxicity against multidrug resistant mouse L5178Y cells expressing ABCB1 assessed as inhibition of cell growth incubated for 24 hrs by MTT assay
Type: functional, cell-based
Settings: not given

Structure (SMILES)	IC50
COc1cccc2c1C(=O)c1c(O)c3c(c(O)c1C2=O)C[C@@](O)(C(=O)CO)C[C@@H]3O[C@H]1C[C@H](N)[C@H](O)[C@H](C)O1 [DOXORUBICIN]	2.14 µM
CN1CCN(c2nc(N)nc(CCCSc3ccccc3)n2)CC1.Cl	52 µM
CN1CCN(c2nc(N)nc(CSCc3ccccc3)n2)CC1	> 100 µM
CCC(Sc1cccc2ccccc12)c1nc(N)nc(N2CCN(C)CC2)n1 (configuration not stated)	30.3 µM
CCC([Se]Cc1ccccc1)c1nc(N)nc(N2CCN(C)CC2)n1 (configuration not stated)	25.3 µM
CN1CCN(c2nc(N)nc(CSc3ccc4ccccc4c3)n2)CC1.Cl	36.6 µM
CN1CCN(c2nc(N)nc(C(C)(C)Sc3ccc4ccccc4c3)n2)CC1	29 µM
CC(SCc1ccccc1)c1nc(N)nc(N2CCN(C)CC2)n1 (configuration not stated)	> 100 µM
CCCCC(SCc1ccccc1)c1nc(N)nc(N2CCN(C)CC2)n1 (configuration not stated)	30.6 µM
CCC(Sc1ccccc1)c1nc(N)nc(N2CCN(C)CC2)n1.Cl (configuration not stated)	81.5 µM
CN1CCN(c2nc(N)nc(CCC[Se]c3ccccc3)n2)CC1.Cl	42.2 µM
CN1CCN(c2nc(N)nc(CSc3ccccc3)n2)CC1	> 100 µM
CCCC(SCc1ccccc1)c1nc(N)nc(N2CCN(C)CC2)n1.Cl (configuration not stated)	54.6 µM
CCCC(Sc1ccccc1)c1nc(N)nc(N2CCN(C)CC2)n1.Cl (configuration not stated)	21.2 µM
CN1CCN(c2nc(N)nc(CCSCc3ccccc3)n2)CC1.Cl	70.9 µM
CC(Sc1cccc2ccccc12)c1nc(N)nc(N2CCN(C)CC2)n1 (configuration not stated)	32.4 µM

Tested on: L5178Y
Assay: Antiproliferative activity against parental mouse L5178Y cells assessed as inhibition of cell growth incubated for 72 hrs by MTT assay
Type: functional, cell-based
Settings: not given

Structure (SMILES)	IC50
COc1cccc2c1C(=O)c1c(O)c3c(c(O)c1C2=O)C[C@@](O)(C(=O)CO)C[C@@H]3O[C@H]1C[C@H](N)[C@H](O)[C@H](C)O1 [DOXORUBICIN]	0.28 µM
CN1CCN(c2nc(N)nc(CCCSc3ccccc3)n2)CC1.Cl	34.1 µM
CN1CCN(c2nc(N)nc(CSCc3ccccc3)n2)CC1	57.2 µM
CCC(Sc1cccc2ccccc12)c1nc(N)nc(N2CCN(C)CC2)n1 (configuration not stated)	28.2 µM
CCC([Se]Cc1ccccc1)c1nc(N)nc(N2CCN(C)CC2)n1 (configuration not stated)	10.7 µM
CN1CCN(c2nc(N)nc(CSc3ccc4ccccc4c3)n2)CC1.Cl	19 µM
CN1CCN(c2nc(N)nc(C(C)(C)Sc3ccc4ccccc4c3)n2)CC1	26.4 µM
CC(SCc1ccccc1)c1nc(N)nc(N2CCN(C)CC2)n1 (configuration not stated)	> 100 µM
CCCCC(SCc1ccccc1)c1nc(N)nc(N2CCN(C)CC2)n1 (configuration not stated)	25.8 µM
CCC(Sc1ccccc1)c1nc(N)nc(N2CCN(C)CC2)n1.Cl (configuration not stated)	58 µM
CN1CCN(c2nc(N)nc(CCC[Se]c3ccccc3)n2)CC1.Cl	13.3 µM
CN1CCN(c2nc(N)nc(CSc3ccccc3)n2)CC1	> 100 µM
CCCC(SCc1ccccc1)c1nc(N)nc(N2CCN(C)CC2)n1.Cl (configuration not stated)	24.2 µM
CCCC(Sc1ccccc1)c1nc(N)nc(N2CCN(C)CC2)n1.Cl (configuration not stated)	15.5 µM
CN1CCN(c2nc(N)nc(CCSCc3ccccc3)n2)CC1.Cl	38.6 µM
CC(Sc1cccc2ccccc12)c1nc(N)nc(N2CCN(C)CC2)n1 (configuration not stated)	23.3 µM

Tested on: L5178Y
Assay: Antiproliferative activity against multidrug resistant mouse L5178Y cells expressing ABCB1 assessed as inhibition of cell growth incubated for 72 hrs by MTT assay
Type: functional, cell-based
Settings: not given

Structure (SMILES)	IC50
COc1cccc2c1C(=O)c1c(O)c3c(c(O)c1C2=O)C[C@@](O)(C(=O)CO)C[C@@H]3O[C@H]1C[C@H](N)[C@H](O)[C@H](C)O1 [DOXORUBICIN]	1.75 µM
CN1CCN(c2nc(N)nc(CCCSc3ccccc3)n2)CC1.Cl	28.6 µM
CN1CCN(c2nc(N)nc(CSCc3ccccc3)n2)CC1	37.2 µM
CCC(Sc1cccc2ccccc12)c1nc(N)nc(N2CCN(C)CC2)n1 (configuration not stated)	31.1 µM
CCC([Se]Cc1ccccc1)c1nc(N)nc(N2CCN(C)CC2)n1 (configuration not stated)	11.8 µM
CN1CCN(c2nc(N)nc(CSc3ccc4ccccc4c3)n2)CC1.Cl	13.5 µM
CN1CCN(c2nc(N)nc(C(C)(C)Sc3ccc4ccccc4c3)n2)CC1	38.5 µM
CC(SCc1ccccc1)c1nc(N)nc(N2CCN(C)CC2)n1 (configuration not stated)	92.4 µM
CCCCC(SCc1ccccc1)c1nc(N)nc(N2CCN(C)CC2)n1 (configuration not stated)	28.1 µM
CCC(Sc1ccccc1)c1nc(N)nc(N2CCN(C)CC2)n1.Cl (configuration not stated)	47 µM
CN1CCN(c2nc(N)nc(CCC[Se]c3ccccc3)n2)CC1.Cl	11.6 µM
CN1CCN(c2nc(N)nc(CSc3ccccc3)n2)CC1	79.9 µM
CCCC(SCc1ccccc1)c1nc(N)nc(N2CCN(C)CC2)n1.Cl (configuration not stated)	23.5 µM
CCCC(Sc1ccccc1)c1nc(N)nc(N2CCN(C)CC2)n1.Cl (configuration not stated)	16.6 µM
CN1CCN(c2nc(N)nc(CCSCc3ccccc3)n2)CC1.Cl	32.2 µM
CC(Sc1cccc2ccccc12)c1nc(N)nc(N2CCN(C)CC2)n1 (configuration not stated)	32.8 µM

Tested on: L5178Y
Assay: Synergistic antiproliferative activity against multidrug resistant mouse L5178Y cells expressing ABCB1 assessed as combination index at 200 uM incubated for 72 hrs in presence of doxorubicin at 17.242 uM by checkerboard assay
Type: functional
Settings: not given

Structure (SMILES)	CI
CCC(Sc1ccccc1)c1nc(N)nc(N2CCN(C)CC2)n1.Cl (configuration not stated)	0.127
CN1CCN(c2nc(N)nc(CCSCc3ccccc3)n2)CC1.Cl	0.323

Tested on: L5178Y
Assay: Synergistic antiproliferative activity against multidrug resistant mouse L5178Y cells expressing ABCB1 assessed as combination index at 50 uM incubated for 72 hrs in presence of doxorubicin at 17.242 uM by checkerboard assay
Type: functional
Settings: not given

Structure (SMILES)	CI
CCCC(Sc1ccccc1)c1nc(N)nc(N2CCN(C)CC2)n1.Cl (configuration not stated)	0.044

Tested on: L5178Y
Assay: Synergistic antiproliferative activity against multidrug resistant mouse L5178Y cells expressing ABCB1 assessed as combination index at 150 uM incubated for 72 hrs in presence of doxorubicin at 17.242 uM by checkerboard assay
Type: functional
Settings: not given

Structure (SMILES)	CI
CN1CCN(c2nc(N)nc(CCCSc3ccccc3)n2)CC1.Cl	0.199
CCCC(SCc1ccccc1)c1nc(N)nc(N2CCN(C)CC2)n1.Cl (configuration not stated)	0.142

Tested on: L5178Y
Assay: Synergistic antiproliferative activity against multidrug resistant mouse L5178Y cells expressing ABCB1 assessed as combination index at 100 uM incubated for 72 hrs in presence of doxorubicin at 17.242 uM by checkerboard assay
Type: functional
Settings: not given

Structure (SMILES)	CI
CN1CCN(c2nc(N)nc(CSc3ccc4ccccc4c3)n2)CC1.Cl	0.415
CN1CCN(c2nc(N)nc(CCC[Se]c3ccccc3)n2)CC1.Cl	0.309

Tested on: not listed separately
Assay: Cytotoxicity against human HuT 102 cells assessed as inhibition of cell growth incubated for 72 hrs by MTS assay
Type: functional, cell-based
Settings: HuT-102, 72 h

Structure (SMILES)	IC50
CCC([Se]Cc1ccccc1)c1nc(N)nc(N2CCN(C)CC2)n1 (configuration not stated)	44.3 µM
CN1CCN(c2nc(N)nc(CCC[Se]c3ccccc3)n2)CC1.Cl	62 µM
CCCC(Sc1ccccc1)c1nc(N)nc(N2CCN(C)CC2)n1.Cl (configuration not stated)	58.2 µM

Tested on: not listed separately
Assay: Cytotoxicity against human skin fibroblast cells assessed as inhibition of cell growth incubated for 72 hrs by MTS assay
Type: toxicity, cell-based
Settings: not given

Structure (SMILES)	IC50 at 72 h
CCC([Se]Cc1ccccc1)c1nc(N)nc(N2CCN(C)CC2)n1 (configuration not stated)	> 100 µM
CN1CCN(c2nc(N)nc(CCC[Se]c3ccccc3)n2)CC1.Cl	> 100 µM
CCCC(Sc1ccccc1)c1nc(N)nc(N2CCN(C)CC2)n1.Cl (configuration not stated)	> 100 µM

Tested on: Jurkat
Assay: Induction of cell cycle arrest in human Jurkat cells assessed as reduction in cyclin D1 gene expression at 50 uM incubated for 24 hrs by qPCR analysis
Type: functional, cell-based
Settings: not given

Structure (SMILES)	Activity
CCC([Se]Cc1ccccc1)c1nc(N)nc(N2CCN(C)CC2)n1 (configuration not stated)	Active
CN1CCN(c2nc(N)nc(CCC[Se]c3ccccc3)n2)CC1.Cl	Active
CCCC(Sc1ccccc1)c1nc(N)nc(N2CCN(C)CC2)n1.Cl (configuration not stated)	inactive

Tested on: Jurkat
Assay: Induction of cell cycle arrest in human Jurkat cells assessed as reduction in cyclin E1 gene expression at 50 uM incubated for 24 hrs by qPCR analysis
Type: functional, cell-based
Settings: not given

Structure (SMILES)	Activity
CCC([Se]Cc1ccccc1)c1nc(N)nc(N2CCN(C)CC2)n1 (configuration not stated)	Active
CN1CCN(c2nc(N)nc(CCC[Se]c3ccccc3)n2)CC1.Cl	Active
CCCC(Sc1ccccc1)c1nc(N)nc(N2CCN(C)CC2)n1.Cl (configuration not stated)	Active

Tested on: Jurkat
Assay: Induction of cell cycle arrest in human Jurkat cells assessed as increase in p53 transcription at 50 uM incubated for 24 hrs by qPCR analysis
Type: functional, cell-based
Settings: not given

Structure (SMILES)	Activity
CCCC(Sc1ccccc1)c1nc(N)nc(N2CCN(C)CC2)n1.Cl (configuration not stated)	Active

Tested on: Jurkat
Assay: Induction of cell cycle arrest in human Jurkat cells assessed as increase in p21 transcription at 50 uM incubated for 24 hrs by qPCR analysis
Type: functional, cell-based
Settings: not given

Structure (SMILES)	Activity
CCCC(Sc1ccccc1)c1nc(N)nc(N2CCN(C)CC2)n1.Cl (configuration not stated)	Active

Tested on: Jurkat
Assay: Induction of cell cycle arrest in human Jurkat cells assessed as increase in p53 gene expression at 50 uM incubated for 24 hrs by qPCR analysis
Type: functional, cell-based
Settings: not given

Structure (SMILES)	Activity
CCC([Se]Cc1ccccc1)c1nc(N)nc(N2CCN(C)CC2)n1 (configuration not stated)	Active

Tested on: Jurkat
Assay: Induction of cell cycle arrest in human Jurkat cells assessed as increase in p21 gene expression at 50 uM incubated for 24 hrs by qPCR analysis
Type: functional, cell-based
Settings: not given

Structure (SMILES)	Activity
CCC([Se]Cc1ccccc1)c1nc(N)nc(N2CCN(C)CC2)n1 (configuration not stated)	Active

Tested on: Jurkat
Assay: Synergistic induction of cell cycle arrest in human Jurkat cells assessed as reduction in cyclin D1 gene expression at 50 uM incubated for 24 hrs in presence of doxorubicin at 50 nM by qPCR analysis
Type: functional, cell-based
Settings: not given

Structure (SMILES)	Activity
CN1CCN(c2nc(N)nc(CCC[Se]c3ccccc3)n2)CC1.Cl	Active

Tested on: Jurkat
Assay: Synergistic induction of cell cycle arrest in human Jurkat cells assessed as reduction in cyclin E1 gene expression at 50 uM incubated for 24 hrs in presence of doxorubicin at 50 nM by qPCR analysis
Type: functional, cell-based
Settings: not given

Structure (SMILES)	Activity
CN1CCN(c2nc(N)nc(CCC[Se]c3ccccc3)n2)CC1.Cl	Active
CCCC(Sc1ccccc1)c1nc(N)nc(N2CCN(C)CC2)n1.Cl (configuration not stated)	Active

Tested on: Jurkat
Assay: Synergistic induction of cell cycle arrest in human Jurkat cells assessed as increase in p53 gene expression at 50 uM incubated for 24 hrs in presence of doxorubicin at 50 nM by qPCR analysis
Type: functional, cell-based
Settings: not given

Structure (SMILES)	Activity
CCC([Se]Cc1ccccc1)c1nc(N)nc(N2CCN(C)CC2)n1 (configuration not stated)	Active

Tested on: Jurkat
Assay: Synergistic induction of cell cycle arrest in human Jurkat cells assessed as increase in p21 gene expression at 50 uM incubated for 24 hrs in presence of doxorubicin at 50 nM by qPCR analysis
Type: functional, cell-based
Settings: not given

Structure (SMILES)	Activity
CCC([Se]Cc1ccccc1)c1nc(N)nc(N2CCN(C)CC2)n1 (configuration not stated)	Active

From ChEMBL document CHEMBL5344405, “Seleno-vs. thioether triazine derivatives in search for new anticancer agents overcoming multidrug resistance in lymphoma” (Eur J Med Chem, 2022)
